According to US20220125051A1, “PRE-HARVEST DESICCATION METHOD” (SYNGENTA CROP PROTECTION AG, priority 2019, published 2022):
Several values for one entry are separate records, joined by “and”; a condition that tells them apart may be missing. Identical values can stand only once.

Tests used:
Format in all cases: in vivo
Brassica napus (BRSNN) = assay: Pre-harvest desiccation of crop plants; conditions: Table E, evaluated after 7 and 14 days (which not stated), 100=total damage to plant, 0=no damage
Experimental: (§1) Seeds of a variety of test species were sown in standard loam based soil in pots. After cultivation from between 21 and 28 days (post-emergence) under controlled conditions in a glasshouse (at 24/16° C., day/night; 14 hours light; 65% humidity) for warm climate species and (at 20/16° C. day/night; 15 hours light; 65% humidity) for cool climate species.
(§2) The plants were sprayed with an aqueous spray solution derived from dissolving the technical active ingredient formula in a small amount of acetone and a special solvent and emulsifier mixture referred to as IF50 (11.12% Emulsogen EL360 TM+44.44% N-methylpyrrolidone+44.44% Dowanol DPM glycol ether), to create a 50 g/I solution which was then diluted to required concentration using a solution of 1% Empicol ESC70 (Sodium lauryl ether sulphate)+1% ammonium sulphate in water as diluent.
(§3) The delivery of the aqueous spray solution was via a laboratory track sprayer which delivered the aqueous spray composition at a rate of 200 litres per hectare, using a flat fan nozzle (Teejet 11002VS) and an application volume of 200 litre/ha (at 2 bar).
(§4) The test plants were then grown in a glasshouse under controlled conditions (at 24/16° C., day/night; 14 hours light; 65% humidity) for warm climate species and (at 20/16° C. day/night; 15 hours light; 65% humidity) for cool climate species and watered twice daily. After 7 and 14 days the test was evaluated (100=total damage to plant; 0=no damage to plant).
(§5) A value of n/t indicates not tested.
(§6) Glycine Max (GLXMA), Solanum turberosum (SOLTU), Gossypium hirsutum (GOSHI), Brassica napus (BRSNN), Helianthus annus (HELAN)

Glycine Max (GLXMA) = assay: Pre-harvest desiccation of crop plants; conditions: Table E, evaluated after 7 and 14 days (which not stated), 100=total damage to plant, 0=no damage
Experimental: as §1, §2, §3, §4, §5, §6

[1] = test system: Gossypium hirsutum (GOSHI); assay: Pre-harvest desiccation of crop plants; conditions: Table E, evaluated after 7 and 14 days (which not stated), 100=total damage to plant, 0=no damage
Experimental: as §1, §2, §3, §4, §5, §6

[2] = test system: Solanum turberosum (SOLTU); assay: Pre-harvest desiccation of crop plants; conditions: Table E, evaluated after 7 and 14 days (which not stated), 100=total damage to plant, 0=no damage
Experimental: as §1, §2, §3, §4, §5, §6

[3] = test system: Amaranthus retroflexus (AMARE); assay: Post-emergence efficacy, Method B; conditions: read-out: Control of weed species after post-emergence application, AMARE
Experimental: (§7) An “instant formulation”, known as the IF50, containing 50 g/L of the “technical” (i.e. unformulated) active ingredient was prepared by dissolving the active ingredient in a mixture of organic solvents and emulsifier, details of which are provided in the table. This IF50 was then mixed with a small, variable amount of acetone to aid dissolution, before addition of an aqueous solution of 1% v/v ammonium sulphate+1% v/v Empicol ESC70 (Sodium lauryl ether sulphate) adjuvant, as the aqueous diluent, to form an aqueous spray solution which contains a predetermined concentration of the active ingredient (which varies depending on the application rate of the active ingredient to the plants).
(§8) This aqueous spray solution was then sprayed onto the plants, after about 12 days' cultivation. The plants were grown from seeds sown in standard soil, placed in a glasshouse under controlled conditions (at 24/18° C. or 20/16° C., day/night; 16 hours light; 65% humidity). After spray application the plants were then grown on in a glasshouse under the same conditions and watered twice daily. […] the test was evaluated (100=total damage to plant; 0=no damage to plant).
(§9) Ipomoea hederacea (IPOHE), Euphorbia heterophylla (EPHHL), Chenopodium album (CHEAL), Amaranthus retroflexus (AMARE), Lolium perenne (LOLPE), Digitaria sanguinalis (DIGSA), Eleusine indica (ELEIN), Echinochloa crus-galli (ECHCG), Setaria faberi (SETFA)

[4] = test system: Chenopodium album (CHEAL); assay: Post-emergence efficacy, Method B; conditions: read-out: Control of weed species after post-emergence application, CHEAL
Experimental: as §7, §8, §9

[5] = test system: Digitaria sanguinalis (DIGSA); assay: Post-emergence efficacy, Method B; conditions: read-out: Control of weed species after post-emergence application, DIGSA
Experimental: as §7, §8, §9

[6] = test system: Echinochloa crus-galli (ECHCG); assay: Post-emergence efficacy, Method B; conditions: read-out: Control of weed species after post-emergence application, ECHCG
Experimental: as §7, §8, §9

Eleusine indica (ELEIN) [7] = assay: Post-emergence efficacy, Method B; conditions: read-out: Control of weed species after post-emergence application, ELEIN
Experimental: as §7, §8, §9

[8] = test system: Euphorbia heterophylla (EPHHL); assay: Post-emergence efficacy, Method B; conditions: read-out: Control of weed species after post-emergence application, EPHHL
Experimental: as §7, §8, §9

[9] = test system: Ipomoea hederacea (IPOHE); assay: Post-emergence efficacy, Method B; conditions: read-out: Control of weed species after post-emergence application, IPOHE
Experimental: as §7, §8, §9

Lolium perenne (LOLPE) [10] = assay: Post-emergence efficacy, Method B; conditions: read-out: Control of weed species after post-emergence application, LOLPE
Experimental: as §7, §8, §9

Setaria faberi (SETFA) [11] = assay: Post-emergence efficacy, Method B; conditions: read-out: Control of weed species after post-emergence application, SETFA
Experimental: as §7, §8, §9

[12] = test system: Digitaria sanguinalis (DIGSA); assay: Post-emergence efficacy, Method A; conditions: Application rate 500 g/Ha; evaluated after 13 days; 100=total damage to plant, 0=no damage to plant
How it was run: (§10)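 Post-emergence spray on 14-day-old glasshouse plants (24/16 °C day/night, 14 h photoperiod, 65% humidity). Test material was taken up in acetone and IF50 emulsifier mix, then diluted with sodium lauryl ether sulphate (0.25% or 1%) plus 1% ammonium sulphate. Damage was rated 13 days later, 100 = total.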

[13] = test system: Echinochloa crus-galli (ECHCG); assay: Post-emergence efficacy, Method A; conditions: Application rate 500 g/Ha; evaluated after 13 days; 100=total damage to plant, 0=no damage to plant
How it was run: as §10

Eleusine indica (ELEIN) [14] = assay: Post-emergence efficacy, Method A; conditions: Application rate 500 g/Ha; evaluated after 13 days; 100=total damage to plant, 0=no damage to plant
How it was run: as §10

[15] = test system: Euphorbia heterophylla (EPHHL); assay: Post-emergence efficacy, Method A; conditions: Application rate 500 g/Ha; evaluated after 13 days; 100=total damage to plant, 0=no damage to plant
How it was run: as §10

Lolium perenne (LOLPE) [16] = assay: Post-emergence efficacy, Method A; conditions: Application rate 500 g/Ha; evaluated after 13 days; 100=total damage to plant, 0=no damage to plant
How it was run: as §10

Setaria faberi (SETFA) [17] = assay: Post-emergence efficacy, Method A; conditions: Application rate 500 g/Ha; evaluated after 13 days; 100=total damage to plant, 0=no damage to plant
How it was run: as §10

Compound	Post-emergence dessication efficacy, BRSNN (Brassica napus (BRSNN); 150 g/Ha)	Post-emergence dessication efficacy, BRSNN (Brassica napus (BRSNN); 300 g/Ha)	Post-emergence dessication efficacy, BRSNN (Brassica napus (BRSNN); 600 g/Ha)	Post-emergence dessication efficacy, GLXMA (Glycine Max (GLXMA); 150 g/Ha)	Post-emergence dessication efficacy, GLXMA (Glycine Max (GLXMA); 300 g/Ha)	Post-emergence dessication efficacy, GLXMA (Glycine Max (GLXMA); 600 g/Ha)	Post-emergence dessication efficacy, GOSHI ([1]; 150 g/Ha)	Post-emergence dessication efficacy, GOSHI ([1]; 300 g/Ha)	Post-emergence dessication efficacy, GOSHI ([1]; 600 g/Ha)	Post-emergence dessication efficacy, SOLTU ([2]; 150 g/Ha)	Post-emergence dessication efficacy, SOLTU ([2]; 300 g/Ha)	Post-emergence dessication efficacy, SOLTU ([2]; 600 g/Ha)	also measured
O=S(=O)([O-])CC[n+]1ccc(-c2cccnn2)cn1 [Compound A5, 2-(4-pyridazin-3-ylpyridazin-1-ium-1-yl)ethanesulfonate]	50	72	82	83	93	100	82	98	100	27	53	60	
Nc1ccnc(-c2cc[n+](CCC(=O)O)nc2)n1 [Compound A41]													pest or weed control at 1000 g/ha [3]: 100%; pest or weed control at 1000 g/ha [4]: 90%; pest or weed control at 1000 g/ha [5]: 100%; pest or weed control at 1000 g/ha [6]: 100%; pest or weed control at 1000 g/ha (Eleusine indica (ELEIN) [7]): 50%; pest or weed control at 1000 g/ha [8]: 100%; pest or weed control at 1000 g/ha [9]: 20%; pest or weed control at 1000 g/ha (Lolium perenne (LOLPE) [10]): 60%; pest or weed control at 1000 g/ha (Setaria faberi (SETFA) [11]): 100%
O=C(O)CC[n+]1ccc(-c2ncccn2)cn1.[Cl-] [Compound A26, 3-(4-pyrimidin-2-ylpyridazin-1-ium-1-yl)propanoic acid chloride]	65	97	99	96	93	99	100	100	100	62	95	73	Control of weed species after post-emergence application, DIGSA [12]: 100; Control of weed species after post-emergence application, ECHCG [13]: 100; Control of weed species after post-emergence application, ELEIN (Eleusine indica (ELEIN) [14]): 100; Control of weed species after post-emergence application, EPHHL [15]: 100; Control of weed species after post-emergence application, LOLPE (Lolium perenne (LOLPE) [16]): 90; Control of weed species after post-emergence application, SETFA (Setaria faberi (SETFA) [17]): 100
Cl.O=C(O)CC[n+]1ccc(-c2cccnn2)cn1.[Cl-] [Compound A234, 3-(4-pyridazin-1-ium-3-ylpyridazin-1-ium-1-yl)propanoic acid dichloride]	99	100	100	97 and 52	97 and 67	97 and 63			100 and 50				Post-emergence dessication efficacy, BRSNN (Brassica napus (BRSNN); 75 g/Ha): 77; Post-emergence dessication efficacy, GLXMA (Glycine Max (GLXMA); 75 g/Ha): 25; Post-emergence dessication efficacy, GOSHI ([1]; 75 g/Ha): 33; Post-emergence dessication efficacy, SOLTU ([2]; 75 g/Ha): 7
